Test results from patent US11434219B2, “Purification of cannabinoids from crude cannabis oil” (TABA IP, LLC, priority 2018, dated 2022).
≈ marks a conversion by molar mass, not a printed value.

Assay: Solvent survey: solubility of THCA in solvents
Assay type: physicochemical
Experimental: Crystallization of THCA solvent survey study is carried out according the general procedure described above at 0° C. using crystalline THCA standard (rather than cannabis oil). The solubility (g/mL) provided an indication of loading capacities: higher loading capacities are desirable to make the process more efficient. The theoretical yield of THCA is determined based on the purity of the standard, which was 97.4%.

CCCCCc1cc2c(c(O)c1C(=O)O)[C@@H]1C=C(C)CC[C@H]1C(C)(C)O2 [THCA, tetrahydrocannabinolic acid]
Solubility (g/mL) 22.8° C. (solvent 1-Butanol): 0.151 g/mL (≈ 421 mM) | Solubility (g/mL) 30° C. (solvent 1-Butanol): 0.258 g/mL (≈ 720 mM) | Solubility (g/mL) 40° C. (solvent 1-Butanol): 0.514 g/mL (≈ 1430 mM) | Solubility (g/mL) 22.8° C. (solvent Acetone): 0.818 g/mL (≈ 2280 mM) | Solubility (g/mL) 30° C. (solvent Acetone): 1.063 g/mL (≈ 2970 mM) | Solubility (g/mL) 40° C. (solvent Acetone): 1.440 g/mL (≈ 4020 mM) | Solubility (g/mL) 22.8° C. (solvent Acetonitrile): 0.562 g/mL (≈ 1570 mM) | Solubility (g/mL) 30° C. (solvent Acetonitrile): 0.953 g/mL (≈ 2660 mM) | Solubility (g/mL) 40° C. (solvent Acetonitrile): 1.230 g/mL (≈ 3430 mM) | Solubility (g/mL) 22.8° C. (solvent DMA): 0.498 g/mL (≈ 1390 mM) | Solubility (g/mL) 30° C. (solvent DMA): 0.650 g/mL (≈ 1810 mM) | Solubility (g/mL) 40° C. (solvent DMA): 0.892 g/mL (≈ 2490 mM) | Solubility (g/mL) 22.8° C. (solvent DMF): 0.612 g/mL (≈ 1710 mM) | Solubility (g/mL) 30° C. (solvent DMF): 0.929 g/mL (≈ 2590 mM) | Solubility (g/mL) 40° C. (solvent DMF): 1.171 g/mL (≈ 3270 mM) | Solubility (g/mL) 22.8° C. (solvent Ethyl Acetate): 0.555 g/mL (≈ 1550 mM) | Solubility (g/mL) 30° C. (solvent Ethyl Acetate): 0.931 g/mL (≈ 2600 mM) | Solubility (g/mL) 40° C. (solvent Ethyl Acetate): 1.216 g/mL (≈ 3390 mM) | Solubility (g/mL) 22.8° C. (solvent Heptane): 0.092 g/mL (≈ 257 mM) | Solubility (g/mL) 30° C. (solvent Heptane): 0.155 g/mL (≈ 432 mM) | Solubility (g/mL) 40° C. (solvent Heptane): 0.258 g/mL (≈ 720 mM) | Solubility (g/mL) 22.8° C. (solvent THF): 0.743 g/mL (≈ 2070 mM) | Solubility (g/mL) 30° C. (solvent THF): 1.057 g/mL (≈ 2950 mM) | Solubility (g/mL) 40° C. (solvent THF): 1.324 g/mL (≈ 3690 mM) | Solubility (g/mL) 22.8° C. (solvent n-Propanol): 0.140 g/mL (≈ 391 mM) | Solubility (g/mL) 30° C. (solvent n-Propanol): 0.360 g/mL (≈ 1000 mM) | Solubility (g/mL) 40° C. (solvent n-Propanol): 0.585 g/mL (≈ 1630 mM)
